According to publication PMC4912613, “A broad analysis of resistance development in the malaria parasite” (Nature Communications, 2016):

What was measured:
[1] = tested on: HepG2; test: Hepatocyte toxicity; format: cell-based, human; conditions: for Hepatocyte Toxicity: HepG2; for Liver Stage / Hepatocyte Toxicity: toxicity fold shift for the liver stage (hepatocyte toxicity vs liver stage EC50); for EC50 fold shift compared to asexual stage: Hepatocyte Toxicity: hepatocyte toxicity / 3D7 EC50
Outline: (§1)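 Duplicate 12-point dose curves, starting at 5 μM or 50 μM, gave EC50s for both parasite and host toxicity. Compound was added to human HepG2 hepatocytes 2 h before infection with freshly dissected P. berghei sporozoites. Surviving liver-stage forms were quantified by luminescence after 48 h.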

[2] = tested on: P. berghei exoerythrocytic forms; test: Liver-stage P. berghei hepatocyte invasion and development assay (luminescence, HepG2); format: cell-based, Plasmodium berghei; conditions: for EC50: Plasmodium berghei, HepG2, 48 h, P. berghei sporozoites, read-out: Liver Stage EC50; for EC50 fold shift compared to asexual stage: Liver Stage EC50: liver stage EC50 / 3D7 EC50
Outline: as §1

[3] = tested on: hsp90 (D88Y, parent Dd2); test: Cross-resistance EC50 assay, hsp90; format: cell-based; conditions: Plasmodium falciparum, SYBR green 72 hour assay, synchronized parasites, 384-well format
Outline: (§2)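 Comparisons were made strictly within matched assay conditions, with 3D7 standing in where no parent existed. Inhibition came from ³H-hypoxanthine (48 h, 2.0% haematocrit) or SYBR Green (72 h, 4% haematocrit) readouts, three repeats, Grubbs' outlier removal for the latter.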

[4] = tested on: GNF449-R2 (PfATP4 I203L and P990R, parent Dd2); test: Cross-resistance EC50 assay, GNF449-R2; format: cell-based; conditions: Plasmodium falciparum, SYBR green 72 hour assay, asynchronized parasites, 96-well or 1536-well format
Outline: as §2

[5] = tested on: DHODH (E182D, parent 3D7); test: Cross-resistance EC50 assay, DHODH; format: cell-based; conditions: Plasmodium falciparum, SYBR green 72 hour assay, synchronized parasites, 384-well format
Outline: as §2

[6] = tested on: P. falciparum 3D7, Dd2, Dd2Δexo; test: In vitro evolution of compound-resistant lines (selection); format: cell-based, Plasmodium falciparum; conditions: for Time Length to Obtain Mutants: in vitro selection; for # of Resistant Strains Generated: resistant cultures out of three independent cultures; for EC50 fold shifts observed: selected parasites vs selection parent
Outline: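 Resistance was selected in triplicate cultures. High-pressure: ~1–2 × 10^9 parasites at 3–10 × EC50, with intermittent or constant pressure. Step-wise: ~1 × 10^8 parasites, dose raised 5–10% to hold 50% growth reduction, until a reproducible >3× EC50 shift. Lines were cloned by limiting dilution; selection ended at 200 days.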

[7] = tested on: ATQ-R4 (cytb M133I and L144S, parent 3D7); test: Cross-resistance EC50 assay, ATQ-R4; format: cell-based, Plasmodium falciparum; conditions: Plasmodium falciparum, 3D7; SYBR green 72 hour assay; asynchronized parasites; 96-well or 1536-well format; ATQ-R4
Outline: as §2

Structure (SMILES) | Hepatocyte Toxicity [1] [µM] | Liver Stage / Hepatocyte Toxicity [1] | EC50 [2] [nM] | EC50 ([3]; strain HSP90 (Dd2 parent)) [nM] | EC50 [4] [µM] | EC50 ([5]; strain DHODH (3D7 parent)) [nM] | Time Length to Obtain Mutants [6] | # of Resistant Strains Generated [6] | EC50 fold shifts observed [6] | EC50 [7] [µM] | EC50 fold shift compared to asexual stage: Hepatocyte Toxicity [1] | EC50 fold shift compared to asexual stage: Liver Stage EC50 [2] | EC50 ([3]; DD2, HSP90 strain) [nM] | EC50 ([5]; 3D7, DHODH strain) [nM]
FC(F)(F)c1cccc(Nc2nc3ccccc3nc2Nc2cccc(C(F)(F)F)c2)c1 [MMV665794] | 1.374 | 3.67 | 375 | 140 | 0.37 | 187 | SHORT (0-50 days) | 0/3 | no shift | 0.434 |  |  |  | 
O=C(Nc1ccc(Cl)c(Cl)c1)Nc1ccc(Cl)c(Cl)c1 [MMV665852] | 2.594 | 7.56 | 343 | 893 | 1.95 | 1770 | LONG (> 125 days) | 0/3 | no shift | 2.89 |  |  |  | 
OC(CNC1CCCCC1)Cn1c2ccc(I)cc2c2cc(I)ccc21 (centres unmarked) [MMV665882] | 13.25 | 4.34 | 3060 | 25 | 0.028 | 51 | LONG (> 125 days) | 3/3 | 2-3x | 0.026 | 182.26 | 42.02 |  | 
O=C(Nc1ccccc1O)c1ccc(Oc2cccc(C(=O)Nc3ccccc3O)c2)cc1 [MMV665888] | 4.362 | 6.73 | 648 | 843 | 0.972 | 1020 | LONG (> 125 days) | 0/3 | no shift | 1.05 | 3.60 | 0.54 |  | 
COc1ccc(C(=O)C2CC2c2ccc(Cl)cc2)cc1 (centres unmarked) [MMV665924] | > 5 |  | > 5000 | 1680 | 1.29 | 927 | SHORT (0-50 days) | 3/3 | 3-5x | 3.41 | > 6 | > 6 |  | 
CCC(C)NCC(O)(c1ccc(Cl)cc1)c1ccc(Cl)cc1 (centres unmarked) [MMV665928] | > 5 |  | > 5000 | 501 | 0.16 | 878 | SHORT (0-50 days) | 0/3 | no shift | 0.09 | > 10 | > 10 |  | 
O=C(Nc1ccsc1C(=O)NC1CCCCC1)c1ccc(F)cc1 [MMV665939] | > 5 |  | > 5000 | 2180 | 2.21 | 771 | MODERATE (50-125 days) | 3/3 | 4-6x | 3.73 |  |  |  | 
Nc1ccc(-c2nc3cc(Cc4ccc5[nH]c(-c6ccc(N)cc6)nc5c4)ccc3[nH]2)cc1 [MMV665943] | 14.29 | 2.40 | 5950 | 425 | 0.588 | 335 | SHORT (0-50 days) | 0/3 | no shift | 0.045 | 45.22 | 18.84 |  | 
O=C(NC(c1ccccc1)c1ccc2cccnc2c1O)c1ccccc1 (centres unmarked) [MMV666080] | 1.309 | 2.82 | 464 | 645 | 1.11 | 779 | LONG (> 125 days) | 0/3 | no shift | 0.746 | 1.55 | 0.55 |  | 
COc1cc(C(=O)ON=C(N)Cc2cccc3ccccc23)cc(OC)c1OC [MMV666687] | 31.52 | 1.50 | 21000 | 283 | 0.813 | 1070 | LONG (> 125 days) | 0/3 | no shift | 0.784 |  |  |  | 
c1cncc(-c2cc(N3CCC(CN4CCOCC4)CC3)nc(-c3ccncc3)n2)c1 [MMV668399] | > 50 | > 7 | 7040 | 90 | 0.938 | 80 | LONG (> 125 days) | 3/3 | 2-4x | 0.332 |  |  |  | 
CN(C)CCCNCc1ccc(-c2ccc(Cl)c(Cl)c2)o1 [MMV673964] | 19.83 | 2.21 | 8990 |  | 1.05 |  | LONG (> 125 days) | 0/3 | no shift | 0.163 | 32.67 | 14.81 | 322 | 337
